Data: PMC12406685, “Thiazole substitution of a labile amide bond—a new option toward antiplasmodial pantothenamide-mimics” (Antimicrobial Agents and Chemotherapy, 2025)

Assays:
[1] = system: human foreskin fibroblasts (HFF); assay: In vitro HFF proliferation assay (Incucyte confluency); type: cell-based; settings: 200 µM compound, DMEM with 16.8 µM pantothenate, 96 h; mean ± range/2 of two experiments
Protocol: (§1) HFF cells were maintained in vitro in DMEM supplemented with 10% (vol/vol) newborn calf serum, 50 units/mL penicillin, 50 µg/mL streptomycin, 10 µg/mL gentamicin, 0.2 mM L-glutamine, and 0.25 µg/mL amphotericin B, as previously described ([99]). HepG2 cells were maintained in RPMI-1640 medium (Thermo Fisher Scientific, catalogue number 72400120) supplemented with 10% (vol/vol) fetal bovine serum, 50 units/mL penicillin, and 50 µg/mL streptomycin.
In vitro HFF proliferation assays were performed as previously described by Howieson et al. ([32]), with modifications. Confluent HFF cells (in a 75 cm^2 flask) were harvested by treatment with 1 × trypsin–EDTA (0.25% [wt/vol] trypsin +0.2 g/L EDTA) and diluted in 21 mL of DMEM supplemented with 10% [vol/vol] newborn calf serum ([32]). Assays were set up in 96-well microtiter plates in a similar way to that described for the antiplasmodial activity assay. Cycloheximide (10 µM) was used as a non-proliferation control, and 0.1% (vol/vol) DMSO served as a 100% proliferation control. The plates were incubated at 37°C in a CO2 incubator for 96 h, and the Incucyte Live-Cell Analysis System (Essen BioScience) was used to capture cellular changes and assess cell growth in each well over time. Each well was scanned to capture bright field images, and confluency was assessed at the end of the 96 h incubation, which was then used to evaluate the effect of each compound on the proliferation of HFF cells by comparing it to the 100% proliferation control. The bottom of the curve was constrained to 0 when fitting for HFF proliferation assays using GraphPad Prism.

HsPanK3 = biological target: T1, HsPanK3 (Homo sapiens, UniProt Q9H999); assay: HsPanK kinetic assay (pyruvate kinase/lactic dehydrogenase coupled, NADH at 340 nm); type: biochemical; parameters: catalytic core domain of human PanK3 (amino acid residues 12–368); made in house; host or cells: E. coli BL21(DE3); settings: for Substrate inhibition of HsPanK3: at rising substrate concentration (0–2,000 µM)
T1 sequence (Q9H999 12-368): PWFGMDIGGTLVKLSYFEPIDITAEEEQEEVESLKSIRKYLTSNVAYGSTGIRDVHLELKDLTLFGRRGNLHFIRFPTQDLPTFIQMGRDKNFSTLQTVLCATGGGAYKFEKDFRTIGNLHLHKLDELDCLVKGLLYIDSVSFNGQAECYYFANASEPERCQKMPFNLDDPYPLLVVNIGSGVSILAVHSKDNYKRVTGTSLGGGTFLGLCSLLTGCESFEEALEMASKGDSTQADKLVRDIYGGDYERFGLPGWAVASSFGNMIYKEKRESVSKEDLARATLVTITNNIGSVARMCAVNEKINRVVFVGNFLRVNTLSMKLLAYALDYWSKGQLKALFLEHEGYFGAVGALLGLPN
Protocol: The gene encoding the catalytic core domain of human PanK3 (amino acid residues 12–368) was synthesized and cloned into the pET28a(+) expression vector using the NdeI and BamHI restriction sites to produce an N-terminal His6-tagged protein (Bio Basic Inc.). The plasmid was transformed into E. coli BL21(DE3) cells, which were cultured in Terrific Broth (TB) medium containing 50 µg/mL kanamycin at 37°C. When the culture reached an optical density at 600 nm (OD600) of 0.6, protein expression was induced by adding 1.0 mM isopropyl β-D-thiogalactoside (IPTG), followed by incubation at 18°C for 17–18 h. The cells were then harvested and resuspended in lysis buffer (20 mM Tris-HCl, pH 7.5, 500 mM NaCl, 5 mM imidazole, 5% [vol/vol] glycerol) supplemented with 1 mM PMSF (phenylmethylsulfonyl fluoride) and lysozyme (5 mg/g of the cell pellet). The suspension was then sonicated on ice, and the resulting lysate was centrifuged twice at 54,000 × g for 30 min at 4°C.
The clarified supernatant was incubated with Ni-NTA resin (Cytiva) pre-equilibrated with lysis buffer containing 5 mM imidazole at 4°C. After binding, the resin was washed with lysis buffer containing 30 mM imidazole, then eluted with lysis buffer containing 250 mM imidazole. The eluted HsPanK3 protein was dialyzed against storage buffer (20 mM Tris-HCl, pH 7.5, 200 mM NaCl, 5% [vol/vol] glycerol) and concentrated. The purified protein was stored at −80°C. Protein purity was assessed using SDS-PAGE and deemed >50% (Fig. S4).
The enzyme assay was adapted from a previously described method ([103]), which links the production of ADP to the consumption of NADH through the enzymatic activities of pyruvate kinase and lactic dehydrogenase. Reactions were conducted in 96-well microtiter plates, and the decrease in NADH concentration was measured at 340 nm at 30 s intervals after incubation at 30°C. Each reaction mixture (200 µL) contained the desired compound (substrate) at variable concentrations (0–2,000 µM), ATP (1.5 mM), NADH (0.3 mM), phospho(enol)pyruvate (2.0 mM), MgCl2 (10 mM), KCl (20 mM), a commercial pyruvate kinase/lactic dehydrogenase mixture (12 units, Sigma-Aldrich), and pantothenate kinase (0.48 µM) in 50 mM Tris–HCl buffer (pH 7.6). The reaction was initiated with the addition of ATP. The kinetic parameters were determined by fitting the rate data into the Michaelis–Menten equation using GraphPad Prism 8.0 with nonlinear regressions. Data were collected from three independent experiments, each performed in triplicate to verify the trends and optimize the selected concentrations. The kinetic parameters were calculated from the most complete triplicate set of data, and errors represent SEM.

[2] = system: human hepatoblastoma cells (HepG2); assay: In vitro HepG2 proliferation assay (Incucyte confluency); type: cell-based; settings: for Proliferation (%) of HepG2 with 200 µM Cpd and 1 µM Pan: 200 µM compound, 72 h, mean ± range/2 of two experiments; for Proliferation (%) of HepG2 with 200 µM Cpd and 1 µM Pan / Effect on HepG2 cells, in words: RPMI-1640 with 1 µM pantothenate
Protocol: as §1
In vitro HepG2 proliferation assays were performed similarly to the HFF proliferation assays with modifications. Confluent HepG2 cells were harvested by treatment with 1 × trypsin–EDTA and diluted in RPMI-1640 supplemented with 10% (vol/vol) fetal bovine serum. Assays were set up in 96-well microtiter plates with 20,000 cells per well. Puromycin (10 µM) was used as a non-proliferation control, and 0.1% (vol/vol) DMSO served as a 100% proliferation control. The plates were incubated at 37°C in a CO2 incubator for 72 h, and the Incucyte Live-Cell Analysis System (Essen BioScience) was used to capture cellular changes and assess cell growth in each well over time as described above for the HFF proliferation assays. The bottom of the curve was constrained to 0 when fitting for HepG2 proliferation assays using GraphPad Prism.

[3] = relative to natural substrate pantothenate

Structure (SMILES)	Proliferation (%) of HFF with 200 µM Cpd and 16.8 µM Pan [1] [%]	kcat of HsPanK3 compared with that of pantothenate, in words (HsPanK3)	Fold lower kcat/Km of HsPanK3 compared to pantothenate (HsPanK3; [3])	Proliferation (%) of HepG2 with 200 µM Cpd and 1 µM Pan [2] [%]	Effect on HepG2 cells, in words ([2]; 200 µM)	Ki (HsPanK3) [mM]	Substrate inhibition of HsPanK3 (HsPanK3)	Fold higher Km of HsPanK3 for compound compared to pantothenate (HsPanK3; [3]) [fold]	inhibition at 200 µM ([2]; Homo sapiens, HepG2, 200 µM) [%]
CCCCCc1csc(CNC(=O)[C@H](O)C(C)(C)CO)n1 [Compound 1c]	97 ± 4	same as	~ 3 fold	62 ± 7	some low-level toxicity				
CCCCc1csc(CNC(=O)[C@H](O)C(C)(C)CO)n1 [Compound 1a]	100 ± 1	same as		71 ± 11	some low-level toxicity				
CC(C)(CO)[C@@H](O)C(=O)NCc1csc(Cc2ccccc2)n1 [Compound 2c]	101 ± 2	same as	~ 3 fold	93 ± 2	completely inactive	2.65	Substrate inhibition		
CC(C)(CO)[C@@H](O)C(=O)NCc1cnc(-c2ccccc2)s1 [Compound 3f]	100 ± 1	slightly higher	~ 3 fold	89 ± 2	completely inactive				
CC(C)(CO)[C@@H](O)C(=O)NCc1csc(-c2ccccc2)n1 [Compound 2e]	100 ± 1	same as		91 ± 4	completely inactive	4.34	Substrate inhibition	2.8	
CC(C)(CO)[C@@H](O)C(=O)NCc1nc(CCc2ccccc2)cs1 [Compound 1e]	101 ± 2	slightly lower		55 ± 1	some low-level toxicity				~50
